{"source": "patent US7138361B2", "about": "“Herbicidal heterocycles” (E. I. du Pont de Nemours and Company, priority 2000, dated 2006)", "type_in_all_cases": "in vivo", "key": {"Sunflower": {"system": "Sunflower", "test": "Test C preemergence", "conditions": "Rate 500 g/ha, visual evaluation after 12 to 14 days"}, "kochia (Kochia scoparia) [1]": {"system": "kochia (Kochia scoparia)", "test": "Test C postemergence", "procedure,_shortened": "(§1)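 Compounds in non-phytotoxic solvent with surfactant applied preemergence to planted seeds and postemergence to plants at 1- to 4-leaf stage (2–18 cm). Kept in greenhouse 12–14 days, then visually rated against controls on a 0 (no effect) to 100 (complete control) scale.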"}, "[2]": {"system": "cocklebur (Xanthium strumarium)", "test": "Test C postemergence", "procedure,_shortened": "as §1"}, "[3]": {"system": "common ragweed (Ambrosia elatior)", "test": "Test C postemergence", "procedure,_shortened": "as §1"}, "[4]": {"system": "morningglory (Ipomoea hederacea)", "test": "Test C postemergence", "procedure,_shortened": "as §1"}, "[5]": {"system": "goosegrass (Eleusine indica)", "test": "Test C postemergence", "procedure,_shortened": "as §1"}, "[6]": {"system": "johnsongrass (Sorghum halepense)", "test": "Test C postemergence", "procedure,_shortened": "as §1"}, "[7]": {"system": "bermudagrass (Cynodon dactylon)", "test": "Test C postemergence", "procedure,_shortened": "as §1"}, "[8]": {"system": "crabgrass (Digitaria sanguinalis)", "test": "Test C postemergence", "procedure,_shortened": "as §1"}, "[9]": {"system": "woolly cupgrass (Eriochloa villosa)", "test": "Test C postemergence", "procedure,_shortened": "as §1"}, "[10]": {"system": "giant foxtail (Setaria faberii)", "test": "Test C postemergence", "procedure,_shortened": "as §1"}, "[11]": {"system": "yellow nutsedge (Cyperus esculentus)", "test": "Test C postemergence", "procedure,_shortened": "as §1"}, "[12]": {"system": "pigweed (Amaranthus retroflexus)", "test": "Test C postemergence", "procedure,_shortened": "as §1"}, "soybean (Glycine max)": {"system": "soybean (Glycine max)", "test": "Test C postemergence", "procedure,_shortened": "as §1"}, "[13]": {"system": "chickweed (Stellaria media)", "test": "Test C postemergence", "procedure,_shortened": "as §1"}, "[14]": {"system": "velvetleaf (Abutilon theophrasti)", "test": "Test C postemergence", "procedure,_shortened": "as §1"}, "[15]": {"system": "Surinam grass (Brachiaria decumbens)", "test": "Test C postemergence", "procedure,_shortened": "as §1"}, "corn (Zea mays) [16]": {"system": "corn (Zea mays)", "test": "Test C postemergence", "procedure,_shortened": "as §1"}, "[17]": {"system": "lambsquarters (Chenopodium album)", "test": "Test C postemergence", "procedure,_shortened": "as §1"}, "kochia (Kochia scoparia) [18]": {"system": "kochia (Kochia scoparia)", "test": "Test C preemergence", "procedure,_shortened": "as §1"}, "[19]": {"system": "morningglory (Ipomoea hederacea)", "test": "Test C preemergence", "procedure,_shortened": "as §1"}, "[20]": {"system": "Surinam grass (Brachiaria decumbens)", "test": "Test C preemergence", "procedure,_shortened": "as §1"}, "corn (Zea mays) [21]": {"system": "corn (Zea mays)", "test": "Test C preemergence", "procedure,_shortened": "as §1"}, "[22]": {"conditions": "Rate 250 g/ha, scale 0 to 100 (0 no effect, 100 complete control)"}, "[23]": {"conditions": "Rate 500 g/ha, scale 0 to 100 (0 no effect, 100 complete control)"}, "[24]": {"conditions": "Rate 125 g/ha, scale 0 to 100, 0 no effect, 100 complete control"}, "[25]": {"conditions": "preemergence, Rate 62 g/ha, scale 0 to 100"}, "[26]": {"conditions": "preemergence, Rate 500 g/ha, visual evaluation after 12 to 14 days"}, "[27]": {"conditions": "preemergence, Rate 250 g/ha, scale 0 to 100, 0 no effect, 100 complete control"}}}
{"smiles": "CCC(CC)c1ccn(C2CCN(c3ccc(Br)c(OC)c3)C2=O)n1", "note": "(stereo not drawn) [Compound 143]", "values": [{"measurement": "Plant response rating (0 to 100), Sunflower", "setting": "Sunflower", "value": 90}, {"measurement": "Plant response rating, Kochia", "setting": "kochia (Kochia scoparia) [1]; Rate 62 g/ha, scale 0 to 100", "value": 40}, {"measurement": "Plant response rating, Kochia", "setting": "kochia (Kochia scoparia) [1]; [22]", "value": 90}, {"measurement": "Plant response rating, Kochia", "setting": "kochia (Kochia scoparia) [1]; [23]", "value": 90}, {"measurement": "Plant response rating, Cocklebur", "setting": "[2]; Rate 62 g/ha, scale 0 to 100", "value": 20}, {"measurement": "Plant response rating, Cocklebur", "setting": "[2]; [22]", "value": 90}, {"measurement": "Plant response rating, Cocklebur", "setting": "[2]; [23]", "value": 90}, {"measurement": "Plant response rating, Ragweed, Common", "setting": "[3]; Rate 62 g/ha, scale 0 to 100", "value": 20}, {"measurement": "Plant response rating, Ragweed, Common", "setting": "[3]; [22]", "value": 90}, {"measurement": "Plant response rating, Ragweed, Common", "setting": "[3]; [23]", "value": 90}, {"measurement": "Plant response rating, Morningglory", "setting": "[4]; Rate 62 g/ha, scale 0 to 100", "value": 90}, {"measurement": "Plant response rating, Morningglory", "setting": "[4]; [22]", "value": 100}, {"measurement": "Plant response rating, Morningglory", "setting": "[4]; [23]", "value": 100}, {"measurement": "Plant response rating, Goosegrass", "setting": "[5]; Rate 62 g/ha, scale 0 to 100", "value": 30}, {"measurement": "Plant response rating, Goosegrass", "setting": "[5]; [22]", "value": 60}, {"measurement": "Plant response rating, Goosegrass", "setting": "[5]; [23]", "value": 70}, {"measurement": "Plant response rating, Johnsongrass", "setting": "[6]; Rate 62 g/ha, scale 0 to 100", "value": 0}, {"measurement": "Plant response rating, Johnsongrass", "setting": "[6]; [22]", "value": 30}, {"measurement": "Plant response rating, Johnsongrass", "setting": "[6]; [23]", "value": 30}, {"measurement": "Plant response rating, Johnsongrass", "setting": "[6]; rate not given, scale 0 to 100", "value": 10}, {"measurement": "Plant response rating, Bermudagrass", "setting": "[7]; Rate 62 g/ha, scale 0 to 100", "value": 20}, {"measurement": "Plant response rating, Bermudagrass", "setting": "[7]; [24]", "value": 40}, {"measurement": "Plant response rating, Bermudagrass", "setting": "[7]; [22]", "value": 70}, {"measurement": "Plant response rating, Bermudagrass", "setting": "[7]; [23]", "value": 80}, {"measurement": "Plant response rating, Crabgrass", "setting": "[8]; Rate 62 g/ha, scale 0 to 100", "value": 40}, {"measurement": "Plant response rating, Crabgrass", "setting": "[8]; [22]", "value": 70}, {"measurement": "Plant response rating, Crabgrass", "setting": "[8]; [23]", "value": 70}, {"measurement": "Plant response rating, Cupgrass, Woolly", "setting": "[9]; Rate 62 g/ha, scale 0 to 100", "value": 40}, {"measurement": "Plant response rating, Cupgrass, Woolly", "setting": "[9]; [22]", "value": 60}, {"measurement": "Plant response rating, Cupgrass, Woolly", "setting": "[9]; [23]", "value": 70}, {"measurement": "Plant response rating, Foxtail, Giant", "setting": "[10]; Rate 62 g/ha, scale 0 to 100", "value": 30}, {"measurement": "Plant response rating, Foxtail, Giant", "setting": "[10]; [22]", "value": 80}, {"measurement": "Plant response rating, Foxtail, Giant", "setting": "[10]; [23]", "value": 90}, {"measurement": "Plant response rating, Nutsedge", "setting": "[11]; Rate 62 g/ha, scale 0 to 100", "value": 0}, {"measurement": "Plant response rating, Nutsedge", "setting": "[11]; [22]", "value": 0}, {"measurement": "Plant response rating, Nutsedge", "setting": "[11]; [23]", "value": 0}, {"measurement": "Plant response rating, Pigweed", "setting": "[12]; Rate 62 g/ha, scale 0 to 100", "value": 70}, {"measurement": "Plant response rating, Pigweed", "setting": "[12]; [22]", "value": 70}, {"measurement": "Plant response rating, Pigweed", "setting": "[12]; [23]", "value": 90}, {"measurement": "Plant response rating, Soybean", "setting": "soybean (Glycine max); Rate 62 g/ha, scale 0 to 100", "value": 60}, {"measurement": "Plant response rating, Soybean", "setting": "soybean (Glycine max); [22]", "value": 100}, {"measurement": "Plant response rating, Soybean", "setting": "soybean (Glycine max); [23]", "value": 100}, {"measurement": "Plant response rating, Chickweed", "setting": "[13]; Rate 62 g/ha, scale 0 to 100", "value": 100}, {"measurement": "Plant response rating, Chickweed", "setting": "[13]; [24]", "value": 100}, {"measurement": "Plant response rating, Velvetleaf", "setting": "[14]; Rate 62 g/ha, scale 0 to 100", "value": 40}, {"measurement": "Plant response rating, Velvetleaf", "setting": "[14]; [22]", "value": 80}, {"measurement": "Plant response rating, Velvetleaf", "setting": "[14]; [23]", "value": 90}, {"measurement": "Plant response rating, Velvetleaf", "setting": "[14]; scale 0 to 100", "value": 40}, {"measurement": "Plant response rating, Surinam grass", "setting": "[15]; Rate 62 g/ha, scale 0 to 100", "value": 20}, {"measurement": "Plant response rating, Surinam grass", "setting": "[15]; [24]", "value": 20}, {"measurement": "Plant response rating, Surinam grass", "setting": "[15]; [22]", "value": 50}, {"measurement": "Plant response rating, Surinam grass", "setting": "[15]; [23]", "value": 70}, {"measurement": "Plant response rating, Corn", "setting": "corn (Zea mays) [16]; Rate 62 g/ha, scale 0 to 100", "value": 0}, {"measurement": "Plant response rating, Corn", "setting": "corn (Zea mays) [16]; [22]", "value": 0}, {"measurement": "Plant response rating, Corn", "setting": "corn (Zea mays) [16]; [23]", "value": 30}, {"measurement": "Plant response rating, Corn", "setting": "corn (Zea mays) [16]; scale 0 to 100", "value": 0}, {"measurement": "Plant response rating, Lambsquarters", "setting": "[17]; Rate 62 g/ha, scale 0 to 100", "value": 90}, {"measurement": "Plant response rating, Lambsquarters", "setting": "[17]; [22]", "value": 90}, {"measurement": "Plant response rating, Lambsquarters", "setting": "[17]; [23]", "value": 100}, {"measurement": "Plant response rating, Kochia", "setting": "kochia (Kochia scoparia) [18]; [24]", "value": 100}, {"measurement": "Plant response rating, Kochia", "setting": "kochia (Kochia scoparia) [18]; [25]", "value": 100}, {"measurement": "Plant response rating (0 to 100), Kochia", "setting": "kochia (Kochia scoparia) [18]; [26]", "value": 100}, {"measurement": "Plant response rating, Kochia", "setting": "kochia (Kochia scoparia) [18]; [27]", "value": 100}, {"measurement": "Plant response rating, Morningglory", "setting": "[19]; [24]", "value": 100}, {"measurement": "Plant response rating, Morningglory", "setting": "[19]; [25]", "value": 30}, {"measurement": "Plant response rating (0 to 100), Morningglory", "setting": "[19]; [26]", "value": 100}, {"measurement": "Plant response rating, Morningglory", "setting": "[19]; [27]", "value": 100}, {"measurement": "Plant response rating, Surinam grass", "setting": "[20]; [24]", "value": 0}, {"measurement": "Plant response rating, Surinam grass", "setting": "[20]; [25]", "value": 0}, {"measurement": "Plant response rating (0 to 100), Surinam grass", "setting": "[20]; [26]", "value": 70}, {"measurement": "Plant response rating, Surinam grass", "setting": "[20]; [27]", "value": 70}, {"measurement": "Plant response rating, Corn", "setting": "corn (Zea mays) [21]; [24]", "value": 30}, {"measurement": "Plant response rating, Corn", "setting": "corn (Zea mays) [21]; [25]", "value": 30}, {"measurement": "Plant response rating (0 to 100), Corn", "setting": "corn (Zea mays) [21]; [26]", "value": 30}, {"measurement": "Plant response rating, Corn", "setting": "corn (Zea mays) [21]; [27]", "value": 30}]}
